Our source for the MIC values is ChEMBL document CHEMBL4619795, “Establishing the Structure-Activity Relationship of Daptomycin” (ACS Med Chem Lett, 2020).

What all share (type): functional
The subject of assay [1] is Enterococcus. Description: Antibacterial activity against Enterococcus 60 assessed as bacterial growth inhibition in presence of 50 ug/ml calcium ions by CLSI protocol based broth microdilution method.
The test system of assay [2] is Enterococcus faecalis. Description: Antibacterial activity against Streptococcus faecalis assessed as bacterial growth inhibition in presence of 50 ug/ml calcium ions by CLSI protocol based broth microdilution method. For orientation: In broth dilution the organism is exposed to a series of concentrations in liquid medium.
Assay [3] relates to Staphylococcus aureus. Briefly: Antibacterial activity against methicillin-resistant Staphylococcus aureus 14 assessed as bacterial growth inhibition in presence of 50 ug/ml calcium ions by CLSI protocol based broth microdilution method.
In assay [4] the test system is Staphylococcus aureus. Briefly: Antibacterial activity against methicillin-resistant Staphylococcus aureus 88 assessed as bacterial growth inhibition in presence of 50 ug/ml calcium ions by CLSI protocol based broth microdilution method.
Assay [5] has as its system Staphylococcus aureus. Briefly: Antibacterial activity against Staphylococcus aureus ATCC 29213 assessed as bacterial growth inhibition in presence of 50 ug/ml calcium ions by CLSI protocol based broth microdilution method.
Assay [6] concerns Enterococcus. Description: Antibacterial activity against Enterococcus 6 assessed as bacterial growth inhibition in presence of 50 ug/ml calcium ions by CLSI protocol based broth microdilution method.
In assay [7] the test system is Enterococcus faecalis. Description: Antibacterial activity against Enterococcus faecalis ATCC 29212 assessed as bacterial growth inhibition in presence of 50 ug/ml calcium ions by CLSI protocol based broth microdilution method.
The test system of assay [8] is Staphylococcus aureus. Briefly: Antibacterial activity against methicillin-resistant Staphylococcus aureus 11 assessed as bacterial growth inhibition in presence of 50 ug/ml calcium ions by CLSI protocol based broth microdilution method.
For assay [9], the system named is Staphylococcus aureus. Description: Antibacterial activity against methicillin-resistant Staphylococcus aureus 86 assessed as bacterial growth inhibition in presence of 50 ug/ml calcium ions by CLSI protocol based broth microdilution method.

A value given as a limit tells only on which side of the number the result lay.

Usually MIC stands for the lowest concentration that inhibits growth of the organism. Consider `CCCCCCCCCC(=O)N[C@@H](Cc1c[nH]c2ccccc12)C(=O)N[C@@H](CC(N)=O)C(=O)N[C@@H](CC(=O)O)C(=O)N[C@@H]1C(=O)NCC(=O)N[C@@H](CCCN)C(=O)N[C@@H](CC(=O)O)C(=O)N[C@H](C)C(=O)N[C@@H](CC(=O)O)C(=O)NCC(=O)N[C@H](CO)C(=O)N[C@@H](C)C(=O)N[C@@H](CC(=O)c2ccccc2N)C(=O)O[C@@H]1C`, for which the minimal inhibitory concentration (MIC) in [1], in assay [2], in [3], in assay [4], in [5] and in assay [6] was no less than 64 µg/mL each time. The minimum inhibitory concentration (MIC) in assay [7], in [8] and in [9] was no less than 64 µg/mL each time.
With `CCCCCCCCCC(=O)N[C@@H](Cc1c[nH]c2ccccc12)C(=O)N[C@@H](CC(N)=O)C(=O)N[C@@H](CC(=O)O)C(=O)N[C@@H]1C(=O)NCC(=O)N[C@@H](CCCN)C(=O)N[C@@H](CC(=O)O)C(=O)N[C@H](C)C(=O)N[C@@H](C(C)CC(=O)O)C(=O)NCC(=O)N[C@H](CO)C(=O)N[C@@H](C(C)CC(=O)O)C(=O)N[C@@H](CC(=O)c2ccccc2N)C(=O)O[C@@H]1C` (single isomer, unassigned), the MIC in assay [1], in assay [2], in assay [3], in assay [4], in assay [5] and in [6] was no less than 32 µg/mL each time. Besides, the MIC in [7], in assay [8] and in assay [9] was no less than 32 µg/mL throughout.
As for `CCCCCCCCCC(=O)N[C@@H](Cc1c[nH]c2ccccc12)C(=O)N[C@@H](CC(N)=O)C(=O)N[C@@H](CC(=O)O)C(=O)N[C@@H]1C(=O)NCC(=O)N[C@@H](C(C)C)C(=O)N[C@@H](CC(=O)O)C(=O)N[C@H](C)C(=O)N[C@@H](CC(=O)O)C(=O)NCC(=O)N[C@H](CO)C(=O)N[C@@H]([C@@H](C)CC(=O)O)C(=O)N[C@@H](CC(=O)c2ccccc2N)C(=O)O[C@@H]1C`, the MIC is no less than 32 µg/mL in assay [1]; no less than 32 µg/mL in assay [2]; no less than 32 µg/mL in assay [3]; 8 µg/mL in [4]; 8 µg/mL in assay [5]; no less than 32 µg/mL in assay [6]. The MIC in assay [7] is no less than 32 µg/mL; in [8], no less than 32 µg/mL; in assay [9], 8 µg/mL.
On to `CCCCCCCCCC(=O)N[C@@H](Cc1c[nH]c2ccccc12)C(=O)N[C@@H](CC(N)=O)C(=O)N[C@@H](CC(=O)O)C(=O)N[C@@H]1C(=O)NCC(=O)N[C@@H](CC(N)=O)C(=O)N[C@@H](CC(=O)O)C(=O)N[C@H](C)C(=O)N[C@@H](CC(=O)O)C(=O)NCC(=O)N[C@H](CO)C(=O)N[C@@H]([C@@H](C)CC(=O)O)C(=O)N[C@@H](CC(=O)c2ccccc2N)C(=O)O[C@@H]1C`, for which the MIC in assay [1], in assay [2], in assay [3], in assay [4], in assay [5] and in assay [6] was no less than 32 µg/mL throughout. The MIC in assay [7], in assay [8] and in assay [9] was no less than 32 µg/mL throughout.
On to `CCCCCCCCCC(=O)N[C@@H](Cc1c[nH]c2ccccc12)C(=O)N[C@@H](CC(N)=O)C(=O)N[C@@H](C)C(=O)N[C@@H]1C(=O)NCC(=O)N[C@@H](CCCN)C(=O)N[C@@H](CC(=O)O)C(=O)N[C@H](C)C(=O)N[C@@H](CC(=O)O)C(=O)NCC(=O)N[C@H](CO)C(=O)N[C@@H]([C@@H](C)CC(=O)O)C(=O)N[C@@H](CC(=O)c2ccccc2N)C(=O)O[C@@H]1C`, for which the MIC in [1] is no less than 32 µg/mL; in [2] it was no less than 32 µg/mL; in assay [3], no less than 32 µg/mL; in assay [4] it was 16 µg/mL; in [5] it was 16 µg/mL; in assay [6] it was no less than 32 µg/mL. The MIC is no less than 32 µg/mL in assay [7], no less than 32 µg/mL in [8] and 16 µg/mL in assay [9].
As to `C#Cc1ccc(C(=O)N[C@@H](Cc2c[nH]c3ccccc23)C(=O)N[C@@H](CC(N)=O)C(=O)N[C@@H](CC(=O)O)C(=O)N[C@@H]2C(=O)NCC(=O)N[C@@H](CCCN)C(=O)N[C@@H](CC(=O)O)C(=O)N[C@H](C)C(=O)N[C@@H](CC(=O)O)C(=O)NCC(=O)N[C@H](CO)C(=O)N[C@@H]([C@@H](C)CC(=O)O)C(=O)N[C@@H](CC(=O)c3ccccc3N)C(=O)O[C@@H]2C)cc1`, the MIC in assay [1], in assay [2], in assay [3], in assay [4], in assay [5] and in [6] was no less than 32 µg/mL throughout. For the same compound, the MIC in assay [7], in [8] and in assay [9] was no less than 32 µg/mL in each case.
Regarding `CCCCCCCCCC(=O)N[C@@H](Cc1ccncc1)C(=O)N[C@@H](CC(N)=O)C(=O)N[C@@H](CC(=O)O)C(=O)N[C@@H]1C(=O)NCC(=O)N[C@@H](CCCN)C(=O)N[C@@H](CC(=O)O)C(=O)N[C@H](C)C(=O)N[C@@H](CC(=O)O)C(=O)NCC(=O)N[C@H](CO)C(=O)N[C@@H]([C@@H](C)CC(=O)O)C(=O)N[C@@H](CC(=O)c2ccccc2N)C(=O)O[C@@H]1C`, the MIC in assay [1], in assay [2], in assay [3], in [4], in [5] and in [6] was no less than 32 µg/mL throughout. The MIC in assay [7], in assay [8] and in [9] was no less than 32 µg/mL each time.
Regarding `CCCCCCCCCC(=O)N[C@@H](Cc1c[nH]c2ccccc12)C(=O)N[C@@H](CC(N)=O)C(=O)N[C@@H](CC(=O)O)C(=O)N[C@@H]1C(=O)NCC(=O)N[C@@H](Cc2c[nH]cn2)C(=O)N[C@@H](CC(=O)O)C(=O)N[C@H](C)C(=O)N[C@@H](CC(=O)O)C(=O)NCC(=O)N[C@H](CO)C(=O)N[C@@H]([C@@H](C)CC(=O)O)C(=O)N[C@@H](CC(=O)c2ccccc2N)C(=O)O[C@@H]1C`, the MIC is no less than 32 µg/mL in assay [1]; no less than 32 µg/mL in assay [2]; 16 µg/mL in [3]; 8 µg/mL in assay [4]; 8 µg/mL in assay [5]; no less than 32 µg/mL in assay [6]. The MIC in assay [7] was no less than 32 µg/mL; in assay [8], 16 µg/mL; in assay [9], 8 µg/mL.
Regarding `CCCCCCCCCC(=O)N[C@@H](Cc1c[nH]c2ccccc12)C(=O)N[C@@H](CC(N)=O)C(=O)N[C@@H](CC(=O)O)C(=O)N[C@@H]1C(=O)NCC(=O)N[C@@H](CCCCN)C(=O)N[C@@H](CC(=O)O)C(=O)N[C@H](C)C(=O)N[C@@H](CC(=O)O)C(=O)NCC(=O)N[C@H](CO)C(=O)N[C@@H]([C@@H](C)CC(=O)O)C(=O)N[C@@H](CC(=O)c2ccccc2N)C(=O)O[C@@H]1C`, the MIC is 16 µg/mL in assay [1]; 8 µg/mL in assay [2]; no less than 32 µg/mL in assay [3]; 1 µg/mL in [4]; 1 µg/mL in [5]; no less than 32 µg/mL in assay [6]. Also, the values for the minimum inhibitory concentration (MIC) in assay [7], in assay [8] and in assay [9] were no less than 32 µg/mL, 16 µg/mL and 1 µg/mL, respectively.
Turning to `CCCCCCCCCC(=O)N[C@@H](Cc1c[nH]c2ccccc12)C(=O)N[C@@H](CC(N)=O)C(=O)N[C@@H](CC(=O)O)C(=O)N[C@@H]1C(=O)NCC(=O)N[C@@H](CCSC)C(=O)N[C@@H](CC(=O)O)C(=O)N[C@H](C)C(=O)N[C@@H](CC(=O)O)C(=O)NCC(=O)N[C@H](CO)C(=O)N[C@@H]([C@@H](C)CC(=O)O)C(=O)N[C@@H](CC(=O)c2ccccc2N)C(=O)O[C@@H]1C`, the minimal inhibitory concentration (MIC) in [1] was 32 µg/mL; in [2], no less than 32 µg/mL; in [3], no less than 32 µg/mL; in assay [4], no less than 32 µg/mL; in assay [5] it was no less than 32 µg/mL; in assay [6] it was no less than 32 µg/mL. The MIC in assay [7], in assay [8] and in assay [9] was no less than 32 µg/mL throughout.
As to `CCCCCCCCCC(=O)N[C@@H](Cc1c[nH]c2ccccc12)C(=O)N[C@@H](CC(N)=O)C(=O)N[C@@H](CC(=O)O)C(=O)N[C@@H]1C(=O)NCC(=O)N[C@@H](CCCNC(=N)N)C(=O)N[C@@H](CC(=O)O)C(=O)N[C@H](C)C(=O)N[C@@H](CC(=O)O)C(=O)NCC(=O)N[C@H](CO)C(=O)N[C@@H]([C@@H](C)CC(=O)O)C(=O)N[C@@H](CC(=O)c2ccccc2N)C(=O)O[C@@H]1C`, the MIC in assay [1] is 16 µg/mL; in assay [2], 8 µg/mL; in assay [3], 16 µg/mL; in assay [4], 1 µg/mL; in assay [5], 2 µg/mL; in [6], 32 µg/mL. Moreover, the figures for the minimum inhibitory concentration (MIC) in [7], in assay [8] and in assay [9] were no less than 32 µg/mL, 8 µg/mL and 2 µg/mL, respectively.
Take `CCCCCCCCCC(=O)N[C@@H](Cc1c[nH]c2ccccc12)C(=O)N[C@@H](CC(N)=O)C(=O)N[C@@H](CC(=O)O)C(=O)N[C@@H]1C(=O)NCC(=O)N[C@@H](Cc2c[nH]c3ccccc23)C(=O)N[C@@H](CC(=O)O)C(=O)N[C@H](C)C(=O)N[C@@H](CC(=O)O)C(=O)NCC(=O)N[C@H](CO)C(=O)N[C@@H]([C@@H](C)CC(=O)O)C(=O)N[C@@H](CC(=O)c2ccccc2N)C(=O)O[C@@H]1C`: the minimum inhibitory concentration (MIC) in [1] was no less than 32 µg/mL; in assay [2] it was 2 µg/mL; in assay [3], 1 µg/mL; in assay [4] it was 2 µg/mL; in assay [5], 4 µg/mL; in [6] it was no less than 32 µg/mL. Further, the figures for the MIC in assay [7], in assay [8] and in [9] were no less than 32 µg/mL, 2 µg/mL and 4 µg/mL, respectively.
